#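 Each compound was tested at five concentrations against cells in 96-well plates for 48 hours. The concentration for 50% growth inhibition is given as GI50. At the TGI there is no net growth.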
# Legend:
# Assay in all cases: growth of human tumour cells (NCI), 48 h
# 786-0 renal = tested on: 786-0 renal
# A498 renal = tested on: A498 renal
# A549 NSCLC = tested on: A549 NSCLC
# ACHN renal = tested on: ACHN renal
# BT-549 breast = tested on: BT-549 breast
# CAKI-1 renal = tested on: CAKI-1 renal
# CCRF-CEM leukemia = tested on: CCRF-CEM leukemia
# COLO 205 colon = tested on: COLO 205 colon
# DU-145 prostate = tested on: DU-145 prostate
# EKVX NSCLC = tested on: EKVX NSCLC
# HCC-2998 colon = tested on: HCC-2998 colon
# HCT-116 colon = tested on: HCT-116 colon
# HCT-15 colon = tested on: HCT-15 colon
# HL-60(TB) leukemia = tested on: HL-60(TB) leukemia
# HOP-62 NSCLC = tested on: HOP-62 NSCLC
# HOP-92 NSCLC = tested on: HOP-92 NSCLC
# HS 578T breast = tested on: HS 578T breast
# HT29 colon = tested on: HT29 colon
# IGROV1 ovarian = tested on: IGROV1 ovarian
# K-562 leukemia = tested on: K-562 leukemia
# KM12 colon = tested on: KM12 colon
# LOX IMVI melanoma = tested on: LOX IMVI melanoma
# M14 melanoma = tested on: M14 melanoma
# MALME-3M melanoma = tested on: MALME-3M melanoma
# MCF7 breast = tested on: MCF7 breast
# MDA-MB-231 breast = tested on: MDA-MB-231 breast
# MDA-MB-435 = tested on: MDA-MB-435
# MOLT-4 leukemia = tested on: MOLT-4 leukemia
# NCI-H226 lung = tested on: NCI-H226 lung
# NCI-H23 lung = tested on: NCI-H23 lung
# NCI-H460 lung = tested on: NCI-H460 lung
# NCI-H522 lung = tested on: NCI-H522 lung
# NCI/ADR-RES ovarian = tested on: NCI/ADR-RES ovarian
# OVCAR-3 ovarian = tested on: OVCAR-3 ovarian
# OVCAR-4 ovarian = tested on: OVCAR-4 ovarian
# OVCAR-5 ovarian = tested on: OVCAR-5 ovarian
# OVCAR-8 ovarian = tested on: OVCAR-8 ovarian
# PC-3 prostate = tested on: PC-3 prostate
# RPMI-8226 leukemia = tested on: RPMI-8226 leukemia
# RXF 393 renal = tested on: RXF 393 renal
# SF-268 CNS = tested on: SF-268 CNS
# SF-295 CNS = tested on: SF-295 CNS
# SF-539 CNS = tested on: SF-539 CNS
# SK-MEL-2 melanoma = tested on: SK-MEL-2 melanoma
# SK-MEL-28 melanoma = tested on: SK-MEL-28 melanoma
# SK-MEL-5 melanoma = tested on: SK-MEL-5 melanoma
# SK-OV-3 ovarian = tested on: SK-OV-3 ovarian
# SN12C renal = tested on: SN12C renal
# SNB-19 CNS = tested on: SNB-19 CNS
# SNB-75 CNS = tested on: SNB-75 CNS
# SR leukemia = tested on: SR leukemia
# SW-620 colon = tested on: SW-620 colon
# T-47D breast = tested on: T-47D breast
# TK-10 renal = tested on: TK-10 renal
# U251 CNS = tested on: U251 CNS
# UACC-257 melanoma = tested on: UACC-257 melanoma
# UACC-62 melanoma = tested on: UACC-62 melanoma
# UO-31 renal = tested on: UO-31 renal
smiles,measurement,setting,value
CSc1nc(N)cc(Oc2ccc(-c3nc(Nc4cccc(C(F)(F)F)c4)n[nH]3)cc2)n1,GI50,786-0 renal,1280 nM
same,TGI,786-0 renal,4860 nM
same,GI50,A498 renal,486 nM
same,TGI,A498 renal,5250 nM
same,GI50,A549 NSCLC,737 nM
same,TGI,A549 NSCLC,9510 nM
same,GI50,ACHN renal,873 nM
same,TGI,ACHN renal,9640 nM
same,GI50,BT-549 breast,721 nM
same,TGI,BT-549 breast,6820 nM
same,GI50,CAKI-1 renal,640 nM
same,TGI,CAKI-1 renal,3670 nM
same,GI50,CCRF-CEM leukemia,773 nM
same,TGI,CCRF-CEM leukemia,> 43500 nM
same,GI50,COLO 205 colon,897 nM
same,TGI,COLO 205 colon,4050 nM
same,GI50,DU-145 prostate,1280 nM
same,TGI,DU-145 prostate,9530 nM
same,GI50,EKVX NSCLC,1660 nM
same,TGI,EKVX NSCLC,10100 nM
same,GI50,HCC-2998 colon,1330 nM
same,TGI,HCC-2998 colon,4960 nM
same,GI50,HCT-116 colon,456 nM
same,TGI,HCT-116 colon,2150 nM
same,GI50,HCT-15 colon,531 nM
same,TGI,HCT-15 colon,8070 nM
same,GI50,HL-60(TB) leukemia,2360 nM
same,TGI,HL-60(TB) leukemia,9230 nM
same,GI50,HOP-62 NSCLC,593 nM
same,TGI,HOP-62 NSCLC,4990 nM
same,GI50,HOP-92 NSCLC,1300 nM
same,TGI,HOP-92 NSCLC,6000 nM
same,GI50,HS 578T breast,642 nM
same,TGI,HS 578T breast,9290 nM
same,GI50,HT29 colon,432 nM
same,TGI,HT29 colon,2710 nM
same,GI50,IGROV1 ovarian,1880 nM
same,TGI,IGROV1 ovarian,18300 nM
same,GI50,K-562 leukemia,522 nM
same,TGI,K-562 leukemia,> 35300 nM
same,GI50,KM12 colon,498 nM
same,TGI,KM12 colon,4460 nM
same,GI50,LOX IMVI melanoma,520 nM
same,TGI,LOX IMVI melanoma,2050 nM
same,GI50,M14 melanoma,483 nM
same,TGI,M14 melanoma,3850 nM
same,GI50,MALME-3M melanoma,1190 nM
same,TGI,MALME-3M melanoma,8420 nM
same,GI50,MCF7 breast,357 nM
same,TGI,MCF7 breast,5020 nM
same,GI50,MDA-MB-231 breast,1790 nM
same,TGI,MDA-MB-231 breast,8630 nM
same,GI50,MDA-MB-435,255 nM
same,TGI,MDA-MB-435,744 nM
same,GI50,MOLT-4 leukemia,1250 nM
same,TGI,MOLT-4 leukemia,> 38400 nM
same,GI50,NCI-H226 lung,1810 nM
same,TGI,NCI-H226 lung,7690 nM
same,GI50,NCI-H23 lung,893 nM
same,TGI,NCI-H23 lung,10200 nM
same,GI50,NCI-H460 lung,440 nM
same,TGI,NCI-H460 lung,3030 nM
same,GI50,NCI-H522 lung,651 nM
same,TGI,NCI-H522 lung,4060 nM
same,GI50,NCI/ADR-RES ovarian,1110 nM
same,TGI,NCI/ADR-RES ovarian,7450 nM
same,GI50,OVCAR-3 ovarian,336 nM
same,TGI,OVCAR-3 ovarian,1220 nM
same,GI50,OVCAR-4 ovarian,2060 nM
same,TGI,OVCAR-4 ovarian,13100 nM
same,GI50,OVCAR-5 ovarian,2380 nM
same,TGI,OVCAR-5 ovarian,14600 nM
same,GI50,OVCAR-8 ovarian,1360 nM
same,TGI,OVCAR-8 ovarian,10300 nM
same,GI50,PC-3 prostate,1130 nM
same,TGI,PC-3 prostate,9410 nM
same,GI50,RPMI-8226 leukemia,1900 nM
same,TGI,RPMI-8226 leukemia,12600 nM
same,GI50,RXF 393 renal,504 nM
same,TGI,RXF 393 renal,2250 nM
same,GI50,SF-268 CNS,894 nM
same,TGI,SF-268 CNS,12500 nM
same,GI50,SF-295 CNS,784 nM
same,TGI,SF-295 CNS,6240 nM
same,GI50,SF-539 CNS,621 nM
same,TGI,SF-539 CNS,4190 nM
same,GI50,SK-MEL-2 melanoma,789 nM
same,TGI,SK-MEL-2 melanoma,6060 nM
same,GI50,SK-MEL-28 melanoma,1460 nM
same,TGI,SK-MEL-28 melanoma,10400 nM
same,GI50,SK-MEL-5 melanoma,416 nM
same,TGI,SK-MEL-5 melanoma,1570 nM
same,GI50,SK-OV-3 ovarian,516 nM
same,TGI,SK-OV-3 ovarian,3930 nM
same,GI50,SN12C renal,1150 nM
same,TGI,SN12C renal,12300 nM
same,GI50,SNB-19 CNS,1220 nM
same,TGI,SNB-19 CNS,14900 nM
same,GI50,SNB-75 CNS,371 nM
same,TGI,SNB-75 CNS,4460 nM
same,GI50,SR leukemia,354 nM
same,TGI,SR leukemia,> 100000 nM
same,GI50,SW-620 colon,478 nM
same,TGI,SW-620 colon,13600 nM
same,GI50,T-47D breast,810 nM
same,TGI,T-47D breast,5110 nM
same,GI50,TK-10 renal,1540 nM
same,TGI,TK-10 renal,7730 nM
same,GI50,U251 CNS,548 nM
same,TGI,U251 CNS,4730 nM
same,GI50,UACC-257 melanoma,776 nM
same,TGI,UACC-257 melanoma,6340 nM
same,GI50,UACC-62 melanoma,474 nM
same,TGI,UACC-62 melanoma,4720 nM
same,GI50,UO-31 renal,1600 nM
same,TGI,UO-31 renal,11300 nM
